Laboratory results: article PMC10962448, “The preclinical and phase 1 development of the novel oral cathepsin C inhibitor BI 1291583” (ERJ Open Research, 2024)

Molecular target: T1, cathepsin C (CatC; dipeptidyl peptidase 1) (Homo sapiens, UniProt P53634)
T1 construct: gene CTSC
Experiment: surface plasmon resonance with isolated human CatC (pH […]); enzymatic IC50 […]
Type: binding

T1 sequence (P53634 25-134): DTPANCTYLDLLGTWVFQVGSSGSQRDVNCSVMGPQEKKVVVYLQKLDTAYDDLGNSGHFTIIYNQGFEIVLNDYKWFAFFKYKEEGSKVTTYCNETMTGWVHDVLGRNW
T1 sequence (P53634 231-394): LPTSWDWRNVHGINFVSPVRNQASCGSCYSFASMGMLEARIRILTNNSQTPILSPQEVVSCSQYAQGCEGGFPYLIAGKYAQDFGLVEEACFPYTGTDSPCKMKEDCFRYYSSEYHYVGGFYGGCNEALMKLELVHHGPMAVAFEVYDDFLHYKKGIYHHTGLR
T1 sequence (P53634 395-463): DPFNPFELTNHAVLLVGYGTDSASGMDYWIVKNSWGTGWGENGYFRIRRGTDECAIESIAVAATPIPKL

- Kd: 430 pM
Substance: BI 1291583
